Reference: patent US10119124B2 (priority 2007, dated 2018)

Experiments:
[1] = tested on: M2 mutants and wild-type WSN-UdM viruses; format: cell-based, influenza A virus
[2] = tested on: M2 mutants and wild-type WSN-UdM viruses; details: cited from earlier work

NC12CC3CC(CC(C3)C1)C2 [amantadine]
effect on yield and plaque size of wild-type WSN-UdM virus [1]: markedly reduced
concentrations at which the drug selectively inhibits viral replication ([2]; cell culture (Appleyard, 1977)): 0.1 to 5 µM
concentrations of nonspecific action (increase in pH of endosomes) ([2]; cell culture (Daniels et al., 1985)): > 50 μM
